According to patent US12723063B2, “GIPR-agonist compounds” (Eli Lilly and Company, priority 2019, dated 2026):
*1 amine or outer side, *2 acyl side, *3 side chain or, on linkers, in order; H or OH if unused. Where a SMILES comes first, the peptide text is derived from it. Side-chain parts run from the residue outwards. [ ]: non-standard residue; d: D form. The star is where a group is joined. C20 diacid = O=C(O)CCCCCCCCCCCCCCCCCCC(=O)*; C18 diacid = O=C(O)CCCCCCCCCCCCCCCCC(=O)*; γGlu = O=C(O)[C@H](CCC(=O)[*:2])N[*:1]; αMeF = C[C@](N)(Cc1ccccc1)C(=O)O; 4Pal = N[C@@H](Cc1ccncc1)C(=O)O; αMeL = CC(C)C[C@](C)(N)C(=O)O; Orn = NCCC[C@H](N)C(=O)O; AEEA = NCCOCCOCC(=O)O; Aib = CC(C)(N)C(=O)O

Assays:
[1] = biological target: T1, human glucagon receptor (GcgR) (Homo sapiens, UniProt P47871); assay: cAMP functional assay (HTRF) in HEK293 cells in presence of 0.1% casein; type: cell-based; settings: HEK293 cells expressing human GcgR, geometric mean, read-out: hGcgR cAMP Rel EC50 nM (SEM, n)
T1 construct: expressed in transfected cells; host or cells: HEK293

[2] = biological target: T2, human GLP-1 receptor (GLP-1R) (Homo sapiens, UniProt P43220); assay: as above; type: cell-based; settings: HEK293 cells expressing human GLP-1R, geometric mean, read-out: hGLP1R cAMP Rel EC50 nM (SEM, n)
T2 construct: expressed in transfected cells; host or cells: HEK293

[3] = biological target: T3, human GcgR (Homo sapiens, UniProt P47871); assay: [125I]-Glucagon binding, SPA with WGA beads, 0.1% bacitracin; settings: geometric mean, read-out: hGcgR Ki
T3 construct: expressed in transfected cells; crude membranes
Description: Stably transfected cell lines are prepared by subcloning receptor cDNA into a pcDNA3 expression plasmid and transfected into human embryonic kidney (HEK) 293 (hGcgR and hGLP-1R) or Chinese Hamster Ovary (CHO) (hGIPR) cells followed by selection with Geneticin (hGLP-1R and hGIPR) or hygromycin B (hGcgR).
Two methods are used for the preparation of crude cell membranes.
Method 1: Frozen cell pellets are lysed on ice in hypotonic buffer containing 50 mM Tris HCl, pH 7.5, and Roche Complete™ Protease Inhibitors with EDTA. The cell suspension is disrupted using a glass Potter-Elvehjem homogenizer fitted with a Teflon® pestle for 25 strokes. The homogenate is centrifuged at 4° C. at 1100× g for 10 minutes. The supernatant is collected and stored on ice while the pellets are resuspended in homogenization buffer and rehomogenized as described above. The homogenate is centrifuged at 1100× g for 10 minutes. The second supernatant is combined with the first supernatant and centrifuged at 35000× g for 1 hour at 4° C. The resulting membrane pellet is resuspended in homogenization buffer containing protease inhibitors at approximately 1 to 3 mg/mL, quick frozen in liquid nitrogen and stored as aliquots in a −80° C. freezer until use.
Method 2: Frozen cell pellets are lysed on ice in hypotonic buffer containing 50 mM Tris HCl, pH 7.5, 1 mM MgCl2, Roche Complete™ EDTA-free Protease Inhibitors and 25 units/mL DNAse I (Invitrogen). The cell suspension is disrupted using a glass Potter-Elvehjem homogenizer fitted with a Teflon® pestle for 20 to 25 strokes. The homogenate is centrifuged at 4° C. at 1800× g for 15 minutes. The supernatant is collected and stored on ice while the pellets are resuspended in homogenization buffer (without DNAse I) and rehomogenized as described above. The homogenate is centrifuged at 1800× g for 15 minutes. The second supernatant is combined with the first supernatant and centrifuged an additional time at 1800× g for 15 minutes. The overall supernatant is then centrifuged at 25000× g for 30 minutes at 4° C. The resulting membrane pellet is resuspended in homogenization buffer (without DNAse I) containing protease inhibitors at approximately 1 to 3 mg/mL and stored as aliquots in a −80° C. freezer until use.
The human Geg receptor binding assays are performed using a Scintillation Proximity Assay (SPA) format with wheat germ agglutinin (WGA) beads (Perkin Elmer). The binding buffer contains 25 mM 4-(2-hydroxyethyl)-1-piperazineethanesulfonic acid (HEPES), pH 7.4, 2.5 mM CaCl2), 1 mM MgCl2, 0.1% (w/v) bacitracin (Research Products), 0.003% (w/v) Polyoxyethylenesorbitan monolaurate (TWEEN®-20), and Roche Complete™ Protease Inhibitors without EDTA. Peptides and Gcg are thawed and 3-fold serially diluted in 100% DMSO (10 point concentration response curves). Next, 5 μL serially diluted compound or DMSO is transferred into Corning® 3632 clear bottom assay plates containing 45 μL assay binding buffer or unlabeled Gcg control (non-specific binding or NSB, at 1 μM final). […] Plates are sealed and mixed on a plate shaker (setting 6) for 1 minute and read with a PerkinElmer Trilux MicroBeta® scintillation counter after 12 hours of incubation/settling time at room temperature.
Data are analyzed using four-parameter (curve maximum, curve minimum, IC50, Hill slope) nonlinear regression routines (Genedata Screener, version 12.0.4, Genedata AG, Basal, Switzerland). […] Values for Ki are reported as the geometric mean, with error expressed as the standard error of the mean (SEM) and n is equal to the number of independent replicates (determined in assays performed on different days). […] SEM is only calculated when […] or greater. Means are expressed as geometric means with the standard error of the mean (SEM) and the number of replicates (n) indicated in parentheses.

T1 sequence (P47871 26-477): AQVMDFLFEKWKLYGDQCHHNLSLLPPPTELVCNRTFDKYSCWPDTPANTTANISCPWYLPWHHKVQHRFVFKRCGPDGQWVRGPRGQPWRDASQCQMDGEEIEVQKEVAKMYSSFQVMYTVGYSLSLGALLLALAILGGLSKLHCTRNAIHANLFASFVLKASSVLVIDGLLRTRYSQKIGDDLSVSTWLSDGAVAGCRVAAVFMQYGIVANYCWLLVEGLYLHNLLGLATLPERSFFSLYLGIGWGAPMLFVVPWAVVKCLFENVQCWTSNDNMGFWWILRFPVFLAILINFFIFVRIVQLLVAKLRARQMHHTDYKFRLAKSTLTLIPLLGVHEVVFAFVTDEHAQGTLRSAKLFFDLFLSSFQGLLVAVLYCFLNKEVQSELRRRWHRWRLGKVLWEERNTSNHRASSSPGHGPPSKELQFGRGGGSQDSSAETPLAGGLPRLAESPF
T3 sequence (P47871 26-477): as above
T2 sequence (P43220 24-463): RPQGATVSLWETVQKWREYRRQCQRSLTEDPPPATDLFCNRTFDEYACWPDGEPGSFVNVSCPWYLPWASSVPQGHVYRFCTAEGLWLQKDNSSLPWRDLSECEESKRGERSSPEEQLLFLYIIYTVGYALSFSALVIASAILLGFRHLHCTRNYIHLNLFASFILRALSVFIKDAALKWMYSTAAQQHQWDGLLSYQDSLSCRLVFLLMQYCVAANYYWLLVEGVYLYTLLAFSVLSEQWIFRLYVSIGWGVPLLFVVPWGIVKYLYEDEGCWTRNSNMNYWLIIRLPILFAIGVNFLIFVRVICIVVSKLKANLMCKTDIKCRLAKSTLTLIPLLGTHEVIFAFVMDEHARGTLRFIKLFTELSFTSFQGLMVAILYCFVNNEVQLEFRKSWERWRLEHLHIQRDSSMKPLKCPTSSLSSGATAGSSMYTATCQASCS

SMILES | EC50 [1] [nM] | EC50 [2] [nM] | Ki [3] [nM]
CC[C@H](C)[C@H](NC(=O)[C@H](Cc1ccccc1)NC(=O)[C@@H](NC(=O)CNC(=O)[C@H](CCC(=O)O)NC(=O)C(C)(C)NC(=O)[C@@H](N)Cc1ccc(O)cc1)[C@@H](C)O)C(=O)N[C@@H](CO)C(=O)N[C@@H](CC(=O)O)C(=O)N[C@@H](Cc1ccc(O)cc1)C(=O)N[C@@H](CO)C(=O)N[C@H](C(=O)N[C@@](C)(CC(C)C)C(=O)N[C@@H](CC(C)C)C(=O)N[C@@H](CC(=O)O)C(=O)N[C@@H](CCCN)C(=O)N[C@@H](CCCCNC(=O)COCCOCCNC(=O)COCCOCCNC(=O)CC[C@H](NC(=O)CCCCCCCCCCCCCCCCCCC(=O)O)C(=O)O)C(=O)N[C@@H](Cc1c[nH]cn1)C(=O)N[C@@H](CCC(N)=O)C(=O)NC(C)(C)C(=O)N[C@@H](CC(=O)O)C(=O)N[C@@H](Cc1ccccc1)C(=O)N[C@H](C(=O)N[C@@H](CCC(=O)O)C(=O)N[C@@H](Cc1ccncc1)C(=O)N[C@@H](CC(C)C)C(=O)N[C@@H](CC(C)C)C(=O)N[C@@H](CCC(=O)O)C(=O)N[C@@H](CCC(N)=O)C(=O)NCC(=O)N1CCC[C@H]1C(=O)N[C@@H](CO)C(=O)N[C@@H](CO)C(=O)NCC(=O)N[C@@H](C)C(=O)N1CCC[C@H]1C(=O)N1CCC[C@H]1C(=O)N1CCC[C@H]1C(=O)N[C@@H](CO)C(N)=O)C(C)C)[C@@H](C)CC [Example 81] (H-Y[Aib]EGTFISDYSI[αMeL]LD[Orn]K([AEEA-AEEA-γGlu-C20 diacid])HQ[Aib]DFVE[4Pal]LLEQGPSSGAPPPS-NH2) | > 5000 | > 5000 | 699
CC[C@H](C)[C@H](NC(=O)[C@H](Cc1ccccc1)NC(=O)[C@@H](NC(=O)CNC(=O)[C@H](CCC(=O)O)NC(=O)C(C)(C)NC(=O)[C@@H](N)Cc1ccc(O)cc1)[C@@H](C)O)C(=O)N[C@@H](CO)C(=O)N[C@@H](CC(=O)O)C(=O)N[C@@H](Cc1ccc(O)cc1)C(=O)N[C@@H](CO)C(=O)N[C@H](C(=O)N[C@@](C)(CC(C)C)C(=O)N[C@@H](CC(C)C)C(=O)N[C@@H](CC(=O)O)C(=O)N[C@@H](CCCN)C(=O)N[C@@H](CCCCNC(=O)COCCOCCNC(=O)COCCOCCNC(=O)CC[C@H](NC(=O)CCCCCCCCCCCCCCCCCCC(=O)O)C(=O)O)C(=O)N[C@@H](Cc1c[nH]cn1)C(=O)N[C@@H](CCC(N)=O)C(=O)NC(C)(C)C(=O)N[C@@H](CC(=O)O)C(=O)N[C@@H](Cc1ccccc1)C(=O)N[C@H](C(=O)N[C@@H](CCC(=O)O)C(=O)N[C@@H](Cc1ccncc1)C(=O)N[C@@H](CC(C)C)C(=O)N[C@@H](CC(C)C)C(=O)N[C@@H](CCC(=O)O)C(=O)N[C@H](C(=O)NCC(=O)N1CCC[C@H]1C(=O)N[C@@H](CO)C(=O)N[C@@H](CO)C(=O)NCC(=O)N[C@@H](C)C(=O)N1CCC[C@H]1C(=O)N1CCC[C@H]1C(=O)N1CCC[C@H]1C(=O)N[C@@H](CO)C(N)=O)[C@@H](C)O)C(C)C)[C@@H](C)CC [Example 80] (H-Y[Aib]EGTFISDYSI[αMeL]LD[Orn]K([AEEA-AEEA-γGlu-C20 diacid])HQ[Aib]DFVE[4Pal]LLETGPSSGAPPPS-NH2) | > 5000 | > 5000 | > 958
CC[C@H](C)[C@H](NC(=O)[C@H](CO)NC(=O)[C@H](Cc1ccc(O)cc1)NC(=O)[C@H](CC(=O)O)NC(=O)[C@H](CO)NC(=O)[C@@H](NC(=O)[C@](C)(Cc1ccccc1)NC(=O)[C@@H](NC(=O)CNC(=O)[C@H](CCC(=O)O)NC(=O)C(C)(C)NC(=O)[C@@H](N)Cc1ccc(O)cc1)[C@@H](C)O)[C@@H](C)CC)C(=O)N[C@@H](C)C(=O)N[C@@H](CC(C)C)C(=O)N[C@@H](CC(=O)O)C(=O)N[C@@H](CCCCN)C(=O)N[C@@H](CCCCNC(=O)COCCOCCNC(=O)COCCOCCNC(=O)CC[C@H](NC(=O)CCCCCCCCCCCCCCCCC(=O)O)C(=O)O)C(=O)N[C@@H](Cc1c[nH]cn1)C(=O)N[C@@H](CCC(N)=O)C(=O)NC(C)(C)C(=O)N[C@@H](CC(=O)O)C(=O)N[C@@H](Cc1ccccc1)C(=O)N[C@H](C(=O)N[C@@H](CCC(=O)O)C(=O)N[C@@H](Cc1ccncc1)C(=O)N[C@@H](CC(C)C)C(=O)N[C@@H](CC(C)C)C(=O)N[C@@H](C)C(=O)NCC(=O)NCC(=O)N1CCC[C@H]1C(=O)N[C@@H](CO)C(=O)N[C@@H](CO)C(=O)NCC(=O)N[C@@H](C)C(=O)N1CCC[C@H]1C(=O)N1CCC[C@H]1C(=O)N1CCC[C@H]1C(=O)N[C@@H](CO)C(N)=O)C(C)C [Example 23] (H-Y[Aib]EGT[αMeF]ISDYSIALDKK([AEEA-AEEA-γGlu-C18 diacid])HQ[Aib]DFVE[4Pal]LLAGGPSSGAPPPS-NH2) | > 5000 | 206 | 323
CC[C@H](C)[C@H](NC(=O)[C@H](CO)NC(=O)[C@H](Cc1ccc(O)cc1)NC(=O)[C@H](CC(=O)O)NC(=O)[C@H](CO)NC(=O)[C@@H](NC(=O)[C@](C)(Cc1ccccc1)NC(=O)[C@@H](NC(=O)CNC(=O)[C@H](CCC(=O)O)NC(=O)C(C)(C)NC(=O)[C@@H](N)Cc1ccc(O)cc1)[C@@H](C)O)[C@@H](C)CC)C(=O)N[C@@H](C)C(=O)N[C@@H](CC(C)C)C(=O)N[C@@H](CC(=O)O)C(=O)N[C@@H](CCCCN)C(=O)N[C@H](C(=O)N[C@@H](Cc1c[nH]cn1)C(=O)N[C@@H](CCC(N)=O)C(=O)NC(C)(C)C(=O)N[C@@H](CCC(=O)O)C(=O)N[C@@H](Cc1ccccc1)C(=O)N[C@H](C(=O)N[C@@H](CC(N)=O)C(=O)N[C@@H](Cc1ccc(O)cc1)C(=O)N[C@@H](CCCCNC(=O)COCCOCCNC(=O)COCCOCCNC(=O)CC[C@H](NC(=O)CCCCCCCCCCCCCCCCCCC(=O)O)C(=O)O)C(=O)N[C@@H](CC(C)C)C(=O)N[C@@H](C)C(=O)NCC(=O)NCC(=O)N1CCC[C@H]1C(=O)N[C@@H](CO)C(=O)N[C@@H](CO)C(=O)NCC(=O)N[C@@H](C)C(=O)N1CCC[C@H]1C(=O)N1CCC[C@H]1C(=O)N1CCC[C@H]1C(=O)N[C@@H](CO)C(N)=O)C(C)C)[C@@H](C)CC [Example 97] (H-Y[Aib]EGT[αMeF]ISDYSIALDKIHQ[Aib]EFVNYK([AEEA-AEEA-γGlu-C20 diacid])LAGGPSSGAPPPS-NH2) | > 5000 | 2510 | 77.5
CC[C@H](C)[C@H](NC(=O)[C@H](CO)NC(=O)[C@H](Cc1ccc(O)cc1)NC(=O)[C@H](CC(=O)O)NC(=O)[C@H](CO)NC(=O)[C@@H](NC(=O)[C@H](Cc1ccccc1)NC(=O)[C@@H](NC(=O)CNC(=O)[C@H](CCC(=O)O)NC(=O)C(C)(C)NC(=O)[C@@H](N)Cc1ccc(O)cc1)[C@@H](C)O)[C@@H](C)CC)C(=O)N[C@@H](CC(C)C)C(=O)N[C@@H](CC(C)C)C(=O)N[C@@H](CC(=O)O)C(=O)N[C@@H](CCCCN)C(=O)N[C@@H](CCCCNC(=O)COCCOCCNC(=O)COCCOCCNC(=O)CC[C@H](NC(=O)CCCCCCCCCCCCCCCCCCC(=O)O)C(=O)O)C(=O)N[C@@H](C)C(=O)N[C@@H](CCC(N)=O)C(=O)NC(C)(C)C(=O)N[C@@H](CC(=O)O)C(=O)N[C@@H](Cc1ccccc1)C(=O)N[C@H](C(=O)N[C@@H](CC(N)=O)C(=O)N[C@@H](Cc1c[nH]c2ccccc12)C(=O)N[C@@H](CC(C)C)C(=O)N[C@@H](CC(C)C)C(=O)N[C@@H](C)C(=O)N[C@@H](CCC(N)=O)C(=O)NCC(=O)N1CCC[C@H]1C(=O)N[C@@H](CO)C(=O)N[C@@H](CO)C(=O)NCC(=O)N[C@@H](C)C(=O)N1CCC[C@H]1C(=O)N1CCC[C@H]1C(=O)N1CCC[C@H]1C(=O)N[C@@H](CO)C(N)=O)C(C)C [Example 8] (H-Y[Aib]EGTFISDYSILLDKK([AEEA-AEEA-γGlu-C20 diacid])AQ[Aib]DFVNWLLAQGPSSGAPPPS-NH2) | 295 | > 5000 | 101
